Results as given in patent publication US12583870B2, “Azaheteroaryl compound and application thereof” (SHANGHAI BLUERAY BIOPHARMA CO., LTD., priority 2019, dated 2026).

Experiments:
[1] = biological target: T1, EED protein (His6-tagged full-length) binding to H3K27me3 polypeptide (Homo sapiens, UniProt O75530); assay: AlphaScreen evaluation of blocking the binding of EED to H3K27Me3; settings: EED 60 nM, biotinylated H3K27me3 75 nM, 30 minutes incubation
T1 construct: His6-tagged full-length EED protein (441 amino acids)
Procedure, shortened: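 His6-tagged full-length EED (60 nM working stock) and biotin-H3K27me3 peptide aa 19–33 (75 nM working stock) incubated 30 min RT with 9-point 3-fold compound series in 25 mM HEPES pH 8.0, 50 mM NaCl, 0.015% Tween 20, 0.5% BSA. Ni-chelate acceptor and streptavidin donor beads (5 μg/mL each), 1 h dark; IC50 from dose-response fit. Biotin-(His)6 counterscreen checked signal interference.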

[2] = test system: trimethylation level of histone H3K27 in G401 cells; assay: ELISA (H3K27 trimethylation) analysis in G401 cells; assay type: cell-based; settings: Homo sapiens, G-401, 72 hours, H3K27me3 standardized to H3
Procedure, shortened: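 Cells exposed 72 h to 10-point 3-fold dilutions, top 10 μM, 0.5% final DMSO. Acid-extracted histones assayed by ELISA (ECL) for H3K27me3, normalized to total H3 and to DMSO control; IC50 from dose-response fit.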

KARPAS-422 cells = assay: Cell proliferation analysis, KARPAS-422, 13 days, CellTiter-Glo; assay type: cell-based; settings: Homo sapiens, 312 h
Procedure, shortened: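 KARPAS-422 cells were treated with PRC2 inhibitors over 9 three-fold dilutions from 10 μM top (0.5% DMSO, duplicates) in RPMI-1640 with 15% FBS at 37 °C. Every 3–4 days cells were counted and reseeded at 1×10^4/well with fresh compound. Viability was read by CellTiter-Glo luminescence on day 13.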

T1 sequence (O75530 whole entry): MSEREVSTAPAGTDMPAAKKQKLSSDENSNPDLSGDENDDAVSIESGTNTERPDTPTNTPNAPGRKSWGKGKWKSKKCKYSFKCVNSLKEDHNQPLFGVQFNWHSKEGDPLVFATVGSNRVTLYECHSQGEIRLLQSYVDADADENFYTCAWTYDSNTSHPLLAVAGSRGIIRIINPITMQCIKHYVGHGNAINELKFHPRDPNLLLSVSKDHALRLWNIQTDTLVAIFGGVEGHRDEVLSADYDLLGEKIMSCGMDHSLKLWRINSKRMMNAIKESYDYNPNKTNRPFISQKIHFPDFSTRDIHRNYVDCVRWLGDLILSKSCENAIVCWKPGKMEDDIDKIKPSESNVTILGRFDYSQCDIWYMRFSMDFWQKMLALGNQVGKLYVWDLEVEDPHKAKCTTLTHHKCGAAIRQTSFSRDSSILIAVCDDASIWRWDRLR

Structure (SMILES) | IC50 [1] [µM] | IC50 [2] [µM] | IC50 (KARPAS-422 cells) [µM]
Fc1ccc2c(c1CNc1ncc(-c3cccn4cnnc34)c3nncn13)[C@H]1C[C@H]1O2 [8-([1,2,4]triazolo[4,3-a]pyridin-8-yl)-N-(((1aR,6bR)-5-fluoro-1a,6b-dihydro-1H-cyclopropa[b]benzofuran-6-yl)methyl)-[1,2,4]triazolo[4,3-c]pyrimidin-5-amine] | 0.0095 | 0.0074 | 0.0048
Fc1ccc2c(c1CNc1ncc(-c3cccc4ncoc34)c3nncn13)CCO2 [8-(benzo[d]oxazol-7-yl)-N-((5-fluoro-2,3-dihydrobenzofuran-4-yl)methyl)-[1,2,4]triazolo[4,3-c]pyrimidin-5-amine] | 0.0049 | 0.013 | 0.0136
Cc1ccc(-c2cnc(NCc3c(F)ccc4c3CCO4)n3cnnc23)c2nc(CO)cn12 [(8-(5-(((5-fluoro-2,3-dihydrobenzofuran-4-yl)methyl)amino)-[1,2,4]triazolo[4,3-c]pyrimidin-8-yl)-5-methylimidazo[1,2-a]pyridin-2-yl)methanol] | 0.0083 | 0.0014 | 0.0033
OCc1ccc(-c2cnc(NCc3c(F)ccc4c3CCO4)n3cnnc23)c2nccn12 [(8-(5-(((5-fluoro-2,3-dihydrobenzofuran-4-yl)methyl)amino)-[1,2,4]triazolo[4,3-c]pyrimidin-8-yl)imidazo[1,2-a]pyridin-5-yl)methanol] | 0.021 | 0.0052 | 0.0086
CCOC(=O)c1cnc2c(-c3cnc(NCc4c(F)ccc5c4CCO5)n4cnnc34)cccn12 [Ethyl 8-(5-(((5-fluoro-2,3-dihydrobenzofuran-4-yl)methyl)amino)-[1,2,4]triazolo[4,3-c]pyrimidin-8-yl)imidazo[1,2-a]pyridine-3-carboxylate] | 0.0023 | 0.006 | 0.004
COC(=O)Cc1cnc2c(-c3cnc(NCc4c(F)ccc5c4CCO5)n4cnnc34)ccc(C)n12 [Methyl 2-(8-(5-(((5-fluoro-2,3-dihydrobenzofuran-4-yl)methyl)amino)-[1,2,4]triazolo[4,3-c]pyrimidin-8-yl)-5-methylimidazo[1,2-a]pyridin-3-yl)acetate] | 0.0062 | 0.0038 | 0.001
COC(=O)c1ccc(-c2cnc(NCc3c(F)ccc4c3CCO4)n3cnnc23)c2nccn12 [Methyl 8-(5-(((5-fluoro-2,3-dihydrobenzofuran-4-yl)methyl)amino)-[1,2,4]triazolo[4,3-c]pyrimidin-8-yl)imidazo[1,2-a]pyridine-5-carboxylate] | 0.008 | 0.0035 | 0.0051
Cn1cnc2c(-c3cnc(NCc4c(F)ccc5c4CCO5)n4cnnc34)cccc21 [N-((5-fluoro-2,3-dihydrobenzofuran-4-yl)methyl)-8-(1-methyl-1H-benzo[d]imidazol-4-yl)-[1,2,4]triazolo[4,3-c]pyrimidin-5-amine] | 0.0086 | 0.0013 | 0.0016
Fc1ccc2c(c1CNc1ncc(-c3cccn4cc(C(F)(F)F)nc34)c3nncn13)CCO2 [N-((5-fluoro-2,3-dihydrobenzofuran-4-yl)methyl)-8-(2-(trifluoromethyl)imidazo[1,2-a]pyridin-8-yl)-[1,2,4]triazolo[4,3-c]pyrimidin-5-amine] | 0.0035 | 0.0024 | 0.0017
Cc1nc2c(-c3cnc(NCc4c(F)ccc5c4CCO5)n4cnnc34)cccc2o1 [N-((5-fluoro-2,3-dihydrobenzofuran-4-yl)methyl)-8-(2-methylbenzo[d]oxazol-4-yl)-[1,2,4]triazolo[4,3-c]pyrimidin-5-amine] | 0.0092 | 0.0078 | 0.0042
Cc1cn2cccc(-c3cnc(NCc4c(F)ccc5c4CCO5)n4cnnc34)c2n1 [N-((5-fluoro-2,3-dihydrobenzofuran-4-yl)methyl)-8-(2-methylimidazo[1,2-a]pyridin-8-yl)-[1,2,4]triazolo[4,3-c]pyrimidin-5-amine] | 0.0141 | 0.003 | 0.0024
Cc1ccc(-c2cnc(NCc3c(F)ccc4c3CCO4)n3cnnc23)c2ncc(C(C)C)n12 [N-((5-fluoro-2,3-dihydrobenzofuran-4-yl)methyl)-8-(3-isopropyl-5-methylimidazo[1,2-a]pyridin-8-yl)-[1,2,4]triazolo[4,3-c]pyrimidin-5-amine] | 0.0028 | 0.0007 | 0.001
Cc1cnc2c(-c3cnc(NCc4c(F)ccc5c4CCO5)n4cnnc34)cccn12 [N-((5-fluoro-2,3-dihydrobenzofuran-4-yl)methyl)-8-(3-methylimidazo[1,2-a]pyridin-8-yl)-[1,2,4]triazolo[4,3-c]pyrimidin-5-amine] | 0.0046 | 0.0016 | 0.0014
Cc1ccc(-c2cnc(NCc3c(F)ccc4c3CCO4)n3cnnc23)c2nccn12 [N-((5-fluoro-2,3-dihydrobenzofuran-4-yl)methyl)-8-(5-methylimidazo[1,2-a]pyridin-8-yl)-[1,2,4]triazolo[4,3-c]pyrimidin-5-amine] | 0.0058 | 0.0013 | 0.0013
Fc1cc(-c2cnc(NCc3c(F)ccc4c3CCO4)n3cnnc23)c2nc(C(F)(F)F)cn2c1 [N-((5-fluoro-2,3-dihydrobenzofuran-4-yl)methyl)-8-(6-fluoro-2-(trifluoromethyl)imidazo[1,2-a]pyridin-8-yl)-[11,2,4]triazolo[4,3-c]pyrimidin-5-amine] | 0.0023 | 0.0171 | 0.0095
Cc1cn2cc(F)cc(-c3cnc(NCc4c(F)ccc5c4CCO5)n4cnnc34)c2n1 [N-((5-fluoro-2,3-dihydrobenzofuran-4-yl)methyl)-8-(6-fluoro-2-methylimidazo[1,2-a]pyridin-8-yl)-[1,2,4]triazolo[4,3-c]pyrimidin-5-amine] | 0.003 | 0.0035 | 0.0013
Cc1cnc2c(-c3cnc(NCc4c(F)ccc5c4CCO5)n4cnnc34)cc(F)cn12 [N-((5-fluoro-2,3-dihydrobenzofuran-4-yl)methyl)-8-(6-fluoro-3-methylimidazo[1,2-a]pyridin-8-yl)-[1,2,4]triazolo[4,3-c]pyrimidin-5-amine] | 0.0074 | 0.0057 | 0.004
Fc1cc(-c2cnc(NCc3c(F)ccc4c3CCO4)n3cnnc23)c2nccn2c1 [N-((5-fluoro-2,3-dihydrobenzofuran-4-yl)methyl)-8-(6-fluoroimidazo[1,2-a]pyridin-8-yl)-[1,2,4]triazolo[4,3-c]pyrimidin-5-amine] | 0.0049 | 0.0029 | 0.002
Cc1cc(-c2cnc(NCc3c(F)ccc4c3CCO4)n3cnnc23)c2nccn2c1 [N-((5-fluoro-2,3-dihydrobenzofuran-4-yl)methyl)-8-(6-methylimidazo[1,2-a]pyridin-8-yl)-[1,2,4]triazolo[4,3-c]pyrimidin-5-amine] | 0.0243 | 0.014 | 0.0116
Fc1ccc2c(c1CNc1ncc(-c3ccc4nccn4c3)c3nncn13)CCO2 [N-((5-fluoro-2,3-dihydrobenzofuran-4-yl)methyl)-8-(imidazo[1,2-a]pyridin-6-yl)-[1,2,4]triazolo[4,3-c]pyrimidin-5-amine] | 0.0424 | 0.058 | 0.0941
Fc1ccc2c(c1CNc1ncc(-c3ccn4ccnc4c3)c3nncn13)CCO2 [N-((5-fluoro-2,3-dihydrobenzofuran-4-yl)methyl)-8-(imidazo[1,2-a]pyridin-7-yl)-[1,2,4]triazolo[4,3-c]pyrimidin-5-amine] | 0.015 | 0.0056 | 0.0165
Fc1ccc2c(c1CNc1ncc(-c3cccn4ccnc34)c3nncn13)CCO2 [N-((5-fluoro-2,3-dihydrobenzofuran-4-yl)methyl)-8-(imidazo[1,2-a]pyridin-8-yl)-[1,2,4]triazolo[4,3-c]pyrimidin-5-amine] | 0.0044 | 0.0008 | 0.0015
Fc1ccc2c(c1CNc1ncc(-c3ccc4ccnn4c3)c3nncn13)CCO2 [N-((5-fluoro-2,3-dihydrobenzofuran-4-yl)methyl)-8-(pyrazolo[1,5-a]pyridin-6-yl)-[1,2,4]triazolo[4,3-c]pyrimidin-5-amine] | 0.0043 | 0.0061 | 0.0154
Fc1ccc2c(c1CNc1ncc(-c3cnn4cccnc34)c3nncn13)CCO2 [N-((5-fluoro-2,3-dihydrobenzofuran-4-yl)methyl)-8-(pyrazolo[1,5-a]pyrimidin-3-yl)-[1,2,4]triazolo[4,3-c]pyrimidin-5-amine] | 0.0021 | 0.0104 | 0.0097
Fc1ccc2c(c1CNc1ncc(-c3cnc4ccnn4c3)c3nncn13)CCO2 [N-((5-fluoro-2,3-dihydrobenzofuran-4-yl)methyl)-8-(pyrazolo[1,5-a]pyrimidin-6-yl)-[1,2,4]triazolo[4,3-c]pyrimidin-5-amine] | 0.0057 | 0.018 | 0.0183
Fc1ccc2c(c1CNc1ncc(-c3cccn4ccnc34)c3nncn13)[C@H]1C[C@H]1O2 [N-(((1aR,6bR)-5-fluoro-1a,6b-dihydro-1H-cyclopropa[b]benzofuran-6-yl)methyl)-8-(imidazo[1,2-a]pyridin-8-yl)-[1,2,4]triazolo[4,3-c]pyrimidin-5-amine] | 0.0035 | 0.001 | 0.0006
